Source: patent US11985974B2, “Antimicrobial ferulic acid derivatives and uses thereof” (WISCONSIN ALUMNI RESEARCH FOUNDATION, priority 2014, dated 2024)
≈ marks a conversion by molar mass, not a printed value.

Assays:
β-1,3-glucan synthase = test system: T1, β-1,3-glucan synthase; test: β-1,3-glucan synthase activity in the membrane fraction; assay type: biochemical, S. cerevisiae BY4741; conditions: 25° C., 30 min
T1 construct: membrane fraction was prepared from S. cerevisiae BY4741
Method: After the membrane fraction was prepared from S. cerevisiae BY4741 as described previously (n=3) (Abe et al. 2001), β-1,3-glucan synthase activity was measured as described previously (n=3) (Inoue et al. 1995) with slight modification. Briefly, 20 μL membrane fraction (˜70 μg total protein) was added to a reaction mixture (final volume of 100 μL) containing 50 mM Tris·HCl, pH 7.5, 10 mM potassium fluoride, 1 mM EDTA, 0.2 mM UDP-Glc (with 89 Bq UDP-[Glucose-14C]; NEC403; PerkinElmer), and different concentrations of poacic acid (1.25, 2.5, 5, 10, 20, 40, 80, 160, or 320 μg/mL). The reaction mixture was incubated at 25° C. for 30 min and stopped by the addition of ethanol. To trap reaction product (β-1,3-glucan polymer), the reaction mixture was filtered through the membrane filter (mixed cellulose esters; 0.2 μm in pore size; ADVANTEC), washed one time with 2 mL distilled water, and dried at room temperature. After addition of scintillation mixture (Econofluor-2; PerkinElmer), radioactivity was measured by a scintillation counter (LSC-6100; Aloka) Inhibition curves and IC50 values were determined using R software (ver. 3.0.1) by sigmoidal curve fitting with the glm function.

β-1,3-glucan synthesis = test: In vivo β-1,3-glucan synthesis (14C-glucose incorporation); assay type: cell-based, Saccharomyces cerevisiae; conditions: 250 μg/mL, 2 h, 25° C.
Method: Inhibition of in vivo β-1,3-glucan synthesis was measured as described previously with slight modification (n=3) (Abe et al. 2003). Yeast cells (his3Δ) were grown in YPD to early log phase at 25° C. The cultured cells were diluted to 1×10^7 cells per 1 mL with 1 mL of YPD medium containing one-tenth the glucose containing 23.125 kBq [14C] glucose (ARC0122; American Radiolabeled Chemicals) and test compounds [250 μg/mL for poacic acid, 4 μg/mL for echinocandin B, 30 mM for hydroxyurea (negative control), or 0.4% (vol/vol) DMSO as a solvent control]. The cells were radiolabeled by culturing at 25° C. for 2 h. The labeled cells were harvested and incubated with 1 N NaOH at 80° C. for 30 min. The insoluble pellets were resuspended in 10 mM Tris·HCl, pH 7.5, containing 5 mg/mL zymolyase 100T (Seikagaku) and incubated at 37° C. for 18 h. […] The flow-through fraction was mixed with scintillation mixture (Ultima Gold; PerkinElmer), and radioactivity was measured by a scintillation counter (LSC-6100; Aloka). The differences in the incorporation rates in samples were normalized by ΔOD600 measured before and after the labeling period.

[1] = test system: yeast deletion collection; test: Chemical genomic analysis of yeast deletion collection; assay type: cell-based, Saccharomyces cerevisiae
Method: Chemical genomic analysis of poacic acid was performed as described previously (Parsons et al. 2006, Fung et al. 2014). The tested yeast deletion collection had ˜4,000 strains using the genetic background described by Andrusiak (Andrusiak 2012). The optimal inhibitory concentration of poacic acid for chemical genomic profiling [70-80% growth vs. solvent control in yeast extract-peptone-galactose medium after 24 h of growth] was determined using an eight-point dose curve. A concentration of 88 μg/mL inhibited growth within this range; 200-μL cultures of the pooled deletion collection of S. cerevisiae were grown with 88 μg/mL poacic acid (n=3) or a DMSO control in triplicate for 48 h at 30° C. Genomic DNA was extracted using the Epicentre MasterPure Yeast DNA Purification Kit. Mutant-specific molecular barcodes were amplified with specially designed multiplex primers (Smith et al. 2009). The barcodes were sequenced using an Illumina MiSeq. Replicates of each condition, poacic acid (n=3) or DMSO (n=2), were sequenced. The barcode counts for each yeast deletion mutant in the presence of poacic acid were compared to the DMSO control conditions to determine sensitivity or resistance of individual strains (the chemical genetic interaction score) (Parsons et al. 2006). To determine a P value for each top sensitive and resistant mutant, we used the EdgeR package (Robinson et al. 2014, Robinson et al. 2010). A Bonferroni-corrected hypergeometric distribution test was used to search for significant enrichment of GO terms among the top 10 sensitive and resistant deletion mutants (Boyle et al. 2004). To understand the pathways that were most affected by poacic acid, we developed a protein complex/pathway score based on the summation of the z scores for each complex/pathway (Pathway z score). Correlation of the chemical genomic profile of poacic acid with the yeast genetic interaction network was performed as previously described (Costanzo et al. 2010).
For each complex, the chemical genetic interaction score of the genes in the complex with the compound was summed. To determine significance, the expectations for such a sum for random sets of genes of equal size were calculated. The random sets of equal size were expected to have means equal to the background mean and SDs equal to the background SD/sqrt(n). With this information, a z score (number of SDs from the expected mean) for each complex or pathway can be computed: Pathway z-score=(Σ−μ)/(σ×sqrt(n)), where Σ=sum of the chemical genetic interaction scores of genes in the complex, μ=mean of the chemical genetic interaction scores of the compounds with all genes studies, σ=SD of chemical genetic interaction scores of the compounds with all genes in the study, and n=size of the complex. Multivariate Morphological Analysis

## COc1cc(/C=C/c2cc(/C=C/C(=O)O)cc(OC)c2O)ccc1O [poacic acid, (E)-4-Hydroxy-3-{2-[(E)-4-hydroxy-3-methoxystyryl]}-5-methoxycinnamic acid]
β-1,3-glucan synthase
  IC50 (β-1,3-glucan synthase activity in vitro): 31 µg/mL (≈ 90.6 µM)
β-1,3-glucan synthesis
  14C-glucose incorporation into the β-1,3-glucan layer: significantly less 14C-glucose incorporation
[1]; 88 μg/mL, yeast extract-peptone-galactose medium, 24 h
  growth vs. solvent control: 70-80%
[1]; ACK1 deletion mutant, sensitive
  Z Score: ACK1 −9.09 1.39E
[1]; ALG6 deletion mutant, sensitive
  Z Score: ALG6 −8.30 1.82E
[1]; BCK1 deletion mutant, sensitive
  Z Score: BCK1 −12.91 2.58E
[1]; CSG2 deletion mutant, resistant
  Z Score: CSG2 5.89 1.57E
[1]; CWH43 deletion mutant, sensitive
  Z Score: CWH43 −10.99 7.98E
[1]; DFG5 deletion mutant, resistant
  Z Score: DFG5 5.51 1.34E
[1]; DSF2 deletion mutant, resistant
  Z Score: DSF2 5.32 6.68E
[1]; EMC4 deletion mutant, sensitive
  Z Score: EMC4 −7.92 1.90E
[1]; ERG2 deletion mutant, sensitive
  Z Score: ERG2 −7.80 4.76E
[1]; FYV8 deletion mutant, sensitive
  Z Score: FYV8 −9.11 1.11E
[1]; LCL1 deletion mutant, resistant
  Z Score: LCL1 5.79 4.51E
[1]; NBP2 deletion mutant, resistant
  Z Score: NBP2 5.43 1.57E
[1]; NUP170 deletion mutant, resistant
  Z Score: NUP170 5.33 2.79E
[1]; PIB2 deletion mutant, resistant
  Z Score: PIB2 4.96 2.79E
[1]; PKC pathway (most sensitive pathway), 88 μg/mL
  Pathway z score: −7.85
[1]; RGD1 deletion mutant, sensitive
  Z Score: RGD1 −10.16 1.21E
[1]; ROM2 deletion mutant, sensitive
  Z Score: ROM2 −9.47 8.88E
[1]; RPL21B deletion mutant, resistant
  Z Score: RPL21B 4.81 1.11E
[1]; RTS1 deletion mutant, resistant
  Z Score: RTS1 5.39 6.26E
[1]; SNG1 deletion mutant, sensitive
  Z Score: SNG1 −7.91 8.96E
[1]; SUR1 deletion mutant, resistant
  Z Score: SUR1 5.21 5.34E
